The supplement of paper PMC11208160

Test: recombinant UMI read abundance after kanamycin selection (control-corrected) (log10(CPM+1)); higher = more efficient recombination; extreme values may be limits of the assay; sequences stand for … in AGTGCAGAGAAAATCGGCCAGTTTTCTCTGCCTGCAGTCCGCATGCCGTGGGACCCCTTGGGTTCTAACCTGTTGCCTAGATTTATGCAGCGGACTGCCTTTCTCCCAAAGTGATAAACCGG…AGGTTGGTTTCACT; site = the 11-nt donor
How it was run: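 In Escherichia coli, a pool of donor and donor-binding-loop pairs, each with a 12-nt UMI, was tested for the IS621 bridge recombinase. Plating was on IPTG (0.07 mM) plus kanamycin, or without selection, in two replicates. Recombinant UMIs were amplified by PCR across the donor–target junction and sequenced, and counts were reported as log10(CPM+1) after averaging and control-derived scaling.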
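Further: IS621 bridge recombinase in Escherichia coli cells against a fixed T5 target plasmid.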

Sequence	recombinant UMI read abundance (log10)
GTCACGGCATGGACCGGTTTTCCCGGTAATCCGTATTTGAA (site GTCACGGCTTT)	1.2
GTCACGTCATGGACCGGTTTTCCCGGTAATCCGTATTTGCG (site GTCACGTCTCG)	2.07
GTCAGGACATGGACCGGTTTTCCCGGTAATCCGTATTTGTC (site GTCAGGACTGA)	2.38
GTCATGGCATGGACCGGTTTTCCCGGTAATCCGTATTTGAA (site GTCATGGCTTT)	1.99
GTCCCATCATGGACCGGTTTTCCCGGTAATCCGTATTTGCG (site GTCCCATCTCG)	1.31
GTCCCCACATGGACCGGTTTTCCCGGTAATCCGTATTTGTA (site GTCCCCACTTA)	1.14
GTCCGACCATGGACCGGTTTTCCCGGTAATCCGTATTTGCA (site GTCCGACCTTG)	0
GTCCGAGCATGGACCGGTTTTCCCGGTAATCCGTATTTGCA (site GTACGAGCTTG)	0
GTCCGAGCATGGACCGGTTTTCCCGGTAATCCGTATTTGCA (site GTCCGAGCTTG)	1.59
GTCCGAGCATGGACCGGTTTTCCCGGTAATCCGTATTTGCA (site GTGCGAGCTTG)	0.297
GTCCGAGCATGGACCGGTTTTCCCGGTAATCCGTATTTGCA (site GTTCGAGCTTG)	0
GTCCTGCCATGGACCGGTTTTCCCGGTAATCCGTATTTGGC (site GTCCTGCCTGC)	0
GTCGAATCATGGACCGGTTTTCCCGGTAATCCGTATTTGGT (site GTCGAATCTAC)	2.07
GTCGCCCCATGGACCGGTTTTCCCGGTAATCCGTATTTGGC (site GTCGCCCCTGC)	0
GTCGCGTCATGGACCGGTTTTCCCGGTAATCCGTATTTGGA (site GTCGCGTCTTC)	1.24
GTCGGCCCATGGACCGGTTTTCCCGGTAATCCGTATTTGTG (site GTCGGCCCTCA)	0.00361
GTCGGGGCATGGACCGGTTTTCCCGGTAATCCGTATTTGTT (site GTCGGGGCTAA)	0.949
GTCGTATCATGGACCGGTTTTCCCGGTAATCCGTATTTGTC (site GTCGTATCTGA)	2.7
GTCTAACCATGGACCGGTTTTCCCGGTAATCCGTATTTGTC (site GTCTAACCTGA)	0
GTCTACACATGGACCGGTTTTCCCGGTAATCCGTATTTGAG (site GTCTACACTCT)	0.832
GTCTACACATGGACCGGTTTTCCCGGTAATCCGTATTTGCT (site ATCTACACTAG)	1.33
GTCTACACATGGACCGGTTTTCCCGGTAATCCGTATTTGCT (site CTCTACACTAG)	1.44
GTCTACACATGGACCGGTTTTCCCGGTAATCCGTATTTGCT (site GTCTACACTAG)	2.05
GTCTACACATGGACCGGTTTTCCCGGTAATCCGTATTTGCT (site TTCTACACTAG)	1.44
GTCTAGACATGGACCGGTTTTCCCGGTAATCCGTATTTGCA (site GTCTAGACTTG)	2.13

Sequence	recombinant UMI read abundance (log10)
GTCTGCCCATGGACCGGTTTTCCCGGTAATCCGTATTTGCG (site GTCTGCCCTCG)	0.0315
GTCTTCCCATGGACCGGTTTTCCCGGTAATCCGTATTTGCA (site GTCTTCCCTTG)	0
GTGAAGACATGGACCGGTTTTCCCGGTAATCCGTATTTGCA (site AGGAAGACTTG)	1.26
GTGAAGACATGGACCGGTTTTCCCGGTAATCCGTATTTGCA (site GTGAAGACTTG)	2.72
GTGACAACATGGACCGGTTTTCCCGGTAATCCGTATTTGAC (site GTGACAACTGT)	2.91
GTGACACCATGGACCGGTTTTCCCGGTAATCCGTATTTGTT (site GTGACACCTAA)	0.00775
GTGACCCCATGGACCGGTTTTCCCGGTAATCCGTATTTGCC (site GTGACCCCTGG)	1.83
GTGCAAACATGGACCGGTTTTCCCGGTAATCCGTATTTGTG (site GTGCAAACTCA)	2.04
GTGCATCCATGGACCGGTTTTCCCGGTAATCCGTATTTGCA (site GTGCATCCTTG)	1.03
GTGCATGCATGGACCGGTTTTCCCGGTAATCCGTATTTGGA (site GTGCATGCTAC)	0.00401
GTGCATGCATGGACCGGTTTTCCCGGTAATCCGTATTTGGA (site GTGCATGCTCC)	0.296
GTGCATGCATGGACCGGTTTTCCCGGTAATCCGTATTTGGA (site GTGCATGCTGC)	0
GTGCATGCATGGACCGGTTTTCCCGGTAATCCGTATTTGGA (site GTGCATGCTTC)	1.28
GTGCATGCATGGACCGGTTTTCCCGGTAATCCGTATTTGGC (site GTGCATGCTAC)	0.31
GTGCATGCATGGACCGGTTTTCCCGGTAATCCGTATTTGGC (site GTGCATGCTCC)	0
GTGCATGCATGGACCGGTTTTCCCGGTAATCCGTATTTGGC (site GTGCATGCTGC)	2.28
GTGCATGCATGGACCGGTTTTCCCGGTAATCCGTATTTGGC (site GTGCATGCTTC)	0.89
GTGCATGCATGGACCGGTTTTCCCGGTAATCCGTATTTGGT (site ATGCATGCTAC)	0.986
GTGCATGCATGGACCGGTTTTCCCGGTAATCCGTATTTGGT (site CTGCATGCTAC)	0.457
GTGCATGCATGGACCGGTTTTCCCGGTAATCCGTATTTGGT (site GAGCATGCTAC)	0.0372
GTGCATGCATGGACCGGTTTTCCCGGTAATCCGTATTTGGT (site GCGCATGCTAC)	0.271
GTGCATGCATGGACCGGTTTTCCCGGTAATCCGTATTTGGT (site GGGCATGCTAC)	0.00487
GTGCATGCATGGACCGGTTTTCCCGGTAATCCGTATTTGGT (site GTACATGCTAC)	1.47
GTGCATGCATGGACCGGTTTTCCCGGTAATCCGTATTTGGT (site GTCCATGCTAC)	0.00812
GTGCATGCATGGACCGGTTTTCCCGGTAATCCGTATTTGGT (site GTGAATGCTAC)	0

Sequence	recombinant UMI read abundance (log10)
GTGCATGCATGGACCGGTTTTCCCGGTAATCCGTATTTGGT (site GTGCAAGCTAC)	0.00542
GTGCATGCATGGACCGGTTTTCCCGGTAATCCGTATTTGGT (site GTGCACGCTAC)	0.586
GTGCATGCATGGACCGGTTTTCCCGGTAATCCGTATTTGGT (site GTGCAGGCTAC)	0.384
GTGCATGCATGGACCGGTTTTCCCGGTAATCCGTATTTGGT (site GTGCATACTAC)	1.69
GTGCATGCATGGACCGGTTTTCCCGGTAATCCGTATTTGGT (site GTGCATCCTAC)	0.318
GTGCATGCATGGACCGGTTTTCCCGGTAATCCGTATTTGGT (site GTGCATGCTAA)	0.0107
GTGCATGCATGGACCGGTTTTCCCGGTAATCCGTATTTGGT (site GTGCATGCTAC)	0.978
GTGCATGCATGGACCGGTTTTCCCGGTAATCCGTATTTGGT (site GTGCATGCTAG)	0.442
GTGCATGCATGGACCGGTTTTCCCGGTAATCCGTATTTGGT (site GTGCATGCTAT)	1.47
GTGCATGCATGGACCGGTTTTCCCGGTAATCCGTATTTGGT (site GTGCATGCTCC)	0.0111
GTGCATGCATGGACCGGTTTTCCCGGTAATCCGTATTTGGT (site GTGCATGCTGC)	0.451
GTGCATGCATGGACCGGTTTTCCCGGTAATCCGTATTTGGT (site GTGCATGCTTC)	0.0184
GTGCATGCATGGACCGGTTTTCCCGGTAATCCGTATTTGGT (site GTGCATTCTAC)	0
GTGCATGCATGGACCGGTTTTCCCGGTAATCCGTATTTGGT (site GTGCCTGCTAC)	1.15
GTGCATGCATGGACCGGTTTTCCCGGTAATCCGTATTTGGT (site GTGCGTGCTAC)	0.276
GTGCATGCATGGACCGGTTTTCCCGGTAATCCGTATTTGGT (site GTGCTTGCTAC)	0.00578
GTGCATGCATGGACCGGTTTTCCCGGTAATCCGTATTTGGT (site GTGGATGCTAC)	0.00465
GTGCATGCATGGACCGGTTTTCCCGGTAATCCGTATTTGGT (site GTGTATGCTAC)	0.469
GTGCATGCATGGACCGGTTTTCCCGGTAATCCGTATTTGGT (site GTTCATGCTAC)	0.448
GTGCATGCATGGACCGGTTTTCCCGGTAATCCGTATTTGGT (site TTGCATGCTAC)	0.412
GTGCGATCATGGACCGGTTTTCCCGGTAATCCGTATTTGAC (site GTGCGATCTGT)	1.92
GTGCGGGCATGGACCGGTTTTCCCGGTAATCCGTATTTGGT (site GTGCGGGCTAC)	0.486
GTGCTACCATGGACCGGTTTTCCCGGTAATCCGTATTTGCT (site ATGCTACCTAG)	0
GTGCTACCATGGACCGGTTTTCCCGGTAATCCGTATTTGCT (site CTGCTACCTAG)	0
GTGCTACCATGGACCGGTTTTCCCGGTAATCCGTATTTGCT (site GTGCTACCTAG)	0.0199
